In patent EP0377642B1, “HERBICIDES FOR WEED CONTROL IN RICE” (E.I. DU PONT DE NEMOURS AND COMPANY, priority 1987, dated 1989):

How the values were obtained:
Format in all cases: in vivo
[1] = tested on: Ludwigia linifolia; test: Herbicidal efficacy with Bensulfuron methyl and 2,4-D in Thailand (Table 18); conditions: 13 days after treatment
In short: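 Field trials in rice, transplanted or direct-seeded, in Southeast Asia and the U.S. Compound 1 alone or in mixtures, including with 2,4-D, hand-sprayed; the Indonesia Echinochloa trial was applied 2 weeks after transplanting.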

[2] = tested on: Sesbania exaltata; test: Herbicidal efficacy in United States (Table 16); conditions: 57 days after application
Excerpt: (§1) Methyl 2-[[[[(4-methoxy-6-methyl-1,3,5-triazin-2-yl)amino]carbonyl]amino]sulfonyl]benzoate (Compound 1) and mixtures thereof with other compounds were applied as a spray (using a hand sprayer) to rice (either transplanted or direct seeded) in several rice growing areas in Southeast Asia and in the U.S. Tables 1-28 contain the results of these tests and clearly exemplify the utility of this invention. The details of each application are included in the appropriate table. [drawing 2]

[3] = tested on: rice; test: Herbicidal efficacy in United States (Table 16); conditions: 57 days after application
Excerpt: as §1

Compound | % CONTROL OR INJURY LL ([1]; 10 GAI/HA) | % CONTROL OR INJURY LL ([1]; 15 GAI/HA) | % CONTROL OR INJURY LL ([1]; 20 GAI/HA) | % CONTROL OR INJURY SE ([2]; 7 GAI/HA) | % CONTROL OR INJURY SE ([2]; 14 GAI/HA) | % CONTROL OR INJURY SE ([2]; 21 GAI/HA) | % CONTROL OR INJURY RICE ([3]; 7 GAI/HA) | % CONTROL OR INJURY RICE ([3]; 14 GAI/HA) | % CONTROL OR INJURY RICE ([3]; 21 GAI/HA)
COC(=O)c1ccccc1CS(=O)(=O)NC(=O)Nc1nc(OC)cc(OC)n1 [Bensulfuron methyl, methyl 2-[[[[[(4,6-dimethoxy-2-pyrimidinyl)amino]carbonyl]amino]sulfonyl]methyl]benzoate] | 100% | 100% | 100% |  |  |  |  |  | 
COC(=O)c1ccccc1S(=O)(=O)NC(=O)Nc1nc(C)nc(OC)n1 [Compound 1, Methyl 2-[[[[(4-methoxy-6-methyl-1,3,5-triazin-2-yl)amino]carbonyl]amino]sulfonyl]benzoate] |  |  |  | 97% | 98% | 98% | 3% | 10% | 5%
